Six compounds from US12139492B2 (Endotarget Inc., priority 2021, dated 2024) can be followed below.

The structures appear in SMILES notation. Read-outs that look alike come from different tables or passages of the source.

One assay has as its target BTK (Homo sapiens, UniProt Q06187). Kind of assay: Degradation of BTK protein in Namalwa cells (Western blot; DC50, Dmax). Conditions: for DC50: cell line not given. Background: Immunoblotting shows a protein as a band on a membrane.
The test system of another assay is JeKo-1 cells. Kind of assay: Antiproliferative effect, MTS cell viability assay, JeKo-1 cells. The assay is classed as cell-based. To be noted: Homo sapiens; JeKo-1 mantle cell lymphoma cells; read-out: IC50 (anti-proliferation) JeKO-1 cells. The essentials:
(§1)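 Tested at six concentrations (0 to 10 μM in tenfold steps), 72 h; viability by MTS, A490.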
In general terms: Tetrazolium dyes change colour on reduction, which living cells bring about.

For the next assay, the system named is Mino cells. Kind of assay: Antiproliferative effect, MTS cell viability assay, Mino cells. The assay is classed as cell-based. Conditions: Homo sapiens, MINO, Mino mantle cell lymphoma cells; read-out: IC50 (anti-proliferation) Mino cells. The gist of the method:
as §1

The mark [1] stands for this setting: read-out: DC50 (BTK degradation), concentration giving 50% reduction of BTK expression level.
Setting [2] is: read-out: Dmax (BTK degradation).

BTK, sequence (Q06187 whole entry): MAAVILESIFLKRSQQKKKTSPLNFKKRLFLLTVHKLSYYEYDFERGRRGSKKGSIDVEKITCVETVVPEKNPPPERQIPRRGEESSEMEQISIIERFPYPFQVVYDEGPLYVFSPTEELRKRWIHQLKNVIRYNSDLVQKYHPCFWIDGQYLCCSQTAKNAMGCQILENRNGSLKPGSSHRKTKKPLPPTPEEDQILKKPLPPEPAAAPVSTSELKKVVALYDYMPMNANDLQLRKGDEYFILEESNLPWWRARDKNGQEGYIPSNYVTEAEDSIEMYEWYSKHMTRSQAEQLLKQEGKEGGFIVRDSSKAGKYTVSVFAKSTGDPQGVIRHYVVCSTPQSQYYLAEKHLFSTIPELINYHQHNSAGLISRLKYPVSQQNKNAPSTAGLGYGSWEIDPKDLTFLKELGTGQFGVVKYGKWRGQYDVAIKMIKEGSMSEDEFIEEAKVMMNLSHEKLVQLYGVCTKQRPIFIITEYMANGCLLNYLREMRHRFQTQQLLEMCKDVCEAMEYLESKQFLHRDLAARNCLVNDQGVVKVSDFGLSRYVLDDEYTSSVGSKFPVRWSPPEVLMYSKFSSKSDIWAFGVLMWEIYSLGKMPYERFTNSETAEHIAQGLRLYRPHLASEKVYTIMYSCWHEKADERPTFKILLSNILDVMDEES

With `NC(=O)c1c(-c2ccc(Oc3ccccc3)cc2)nn2c1NCC[C@H]2C1CCN(C(=O)N2CCN(CC3CCN(c4ccc5c(c4)C(=O)N(C4CCC(=O)NC4=O)C5=O)CC3)CC2)CC1` (stereo partly drawn) [Compound 289, (7S)-7-(1-(4-((1-(2-(2,6-dioxopiperidin-3-yl)-1,3-dioxoisoindolin-5-yl)piperidin-4-yl)methyl)piperazine-1-carbonyl)piperidin-4-yl)-2-(4-phenoxyphenyl)-4,5,6,7-tetrahydropyrazolo[1,5-a]pyrimidine-3-carboxamide], the Dmax (usually the greatest extent of degradation seen) on BTK is more than 90%. Besides, the 50% degradation concentration (DC50) – broadly, the concentration at which degradation of the target reaches its halfway point – on BTK (BTK degradation) fell in the range of 10 to 50 nM. The IC50 in the assay with JeKo-1 cells is less than 1000 nM; in the assay with Mino cells, 1000 to 10000 nM.
In the case of `NC(=O)c1c(-c2ccc(Oc3ccccc3)cc2)nn2c1NCC[C@H]2C1CCN(CC2CCN(C(=O)N3CCN(CC4CCN(c5ccc6c(c5)C(=O)N(C5CCC(=O)NC5=O)C6=O)CC4)CC3)CC2)CC1` (stereo partly drawn) [Compound 411, (7S)-7-(1-((1-(4-((1-(2-(2,6-dioxopiperidin-3-yl)-1,3-dioxoisoindolin-5-yl)piperidin-4-yl)methyl)piperazine-1-carbonyl)piperidin-4-yl)methyl)piperidin-4-yl)-2-(4-phenoxyphenyl)-4,5,6,7-tetrahydropyrazolo[1,5-a]pyrimidine-3-carboxamide], the half-maximal degradation concentration (DC50) at BTK (setting [1]) fell in the range of 10 to 50 nM. In addition, the Dmax on BTK (setting [2]) was more than 90%. The IC50 was 1000 to 10000 nM in the assay on JeKo-1 cells and less than 1000 nM in the assay on Mino cells.
With `NC(=O)c1c(-c2ccc(Oc3ccccc3)cc2)nn2c1NCCC2C1CCN(C2CCN(C(=O)N3CCC(N4CCN(c5ccc6c(c5)CN(C5CCC(=O)NC5=O)C6=O)CC4)CC3)CC2)CC1` (stereo not drawn) [Compound 342, 7-(1′-(4-(4-(2-(2,6-dioxopiperidin-3-yl)-1-oxoisoindolin-5-yl)piperazin-1-yl)piperidine-1-carbonyl)-[1,4′-bipiperidin]-4-yl)-2-(4-phenoxyphenyl)-4,5,6,7-tetrahydropyrazolo[1,5-a]pyrimidine-3-carboxamide], at BTK, the maximal degradation (Dmax) is more than 90%. In addition, the DC50 on BTK (BTK degradation) is less than 10 nM. The IC50 with JeKo-1 cells and in the assay on Mino cells was less than 1000 nM each time.
In turn, `NC(=O)c1c(-c2ccc(Oc3ccccc3)cc2)nn2c1NCC[C@H]2C1CCN(CCOCCOCCN2CCN(c3ccc4c(c3)C(=O)N(C3CCC(=O)NC3=O)C4=O)CC2)CC1` (stereo partly drawn) [Compound 271, (7S)-7-(1-(2-(2-(2-(4-(2-(2,6-dioxopiperidin-3-yl)-1,3-dioxoisoindolin-5-yl)piperazin-1-yl)ethoxy)ethoxy)ethyl)piperidin-4-yl)-2-(4-phenoxyphenyl)-4,5,6,7-tetrahydropyrazolo[1,5-a]pyrimidine-3-carboxamide] yielded a Dmax on BTK of more than 90%. Also, the DC50 on BTK (BTK degradation) was 10 to 50 nM. Further, the IC50 in the assay on JeKo-1 cells is more than 10000 nM; in the assay on Mino cells it was 1000 to 10000 nM.
The compound `Nc1ncnc2c1c(-c1ccc(Oc3ccccc3)cc1)nn2C1CCN(C2CCN(CCCN3CCC(c4ccc5c(c4)CN(C4CCC(=O)NC4=O)C5=O)CC3)CC2)CC1` (stereo not drawn) [Compound 224, 3-(5-(1-(3-(4-(4-amino-3-(4-phenoxyphenyl)-1H-pyrazolo[3,4-d]pyrimidin-1-yl)-[1,4′-bipiperidin]-1′-yl)propyl)piperidin-4-yl)-1-oxoisoindolin-2-yl)piperidine-2,6-dione] gave a maximal degradation (Dmax) on BTK of more than 75%. The same compound displayed a DC50 on BTK (BTK degradation) of 10 to 50 nM. The IC50 in the assay with JeKo-1 cells and with Mino cells was 1000 to 10000 nM each time.
Take `Nc1ncnc2c1c(-c1ccc(Oc3ccccc3)cc1)nn2C1CCN(CC2CCN(CCCN3CCN(c4ccc(N5CCC(=O)NC5=O)cc4)CC3)CC2)CC1` [Compound 582, 1-(4-(4-(3-(4-((4-(4-amino-3-(4-phenoxyphenyl)-1H-pyrazolo[3,4-d]pyrimidin-1-yl)piperidin-1-yl)methyl)piperidin-1-yl)propyl)piperazin-1-yl)phenyl)dihydropyrimidine-2,4(1H,3H)-dione]: on BTK (setting [1]), the DC50 fell in the range of 10 to 50 nM. Further, the Dmax on BTK (setting [2]) was more than 90%. For the same compound, the IC50 with JeKo-1 cells was 1000 to 10000 nM; in the assay with Mino cells it was less than 1000 nM.
